From patent US4999199A, “Pharmaceutical formulations: liposomes incorporating aromatic polyene antibiotics” (priority 1988, dated 1991)

What was measured:
[1] = conventional formulations, parenteral; cited from earlier work
[2] = system: human red blood cells (RBC); test: In vitro toxicity toward red blood cells (hemoglobin release, hemolysis); conditions: at 75 Mg/ml (so in the source); 20% human RBC, 45 minutes at 37° C.; hypotonic water = 100% lysis
Method: The samples were incubated for 45 minutes at 37° C., centrifuged at 10,000 xg for 20 minutes, and the hemoglobin content of the supernatant determined by its light absorbance. The release of hemoglobin by a hypotonic water solution was also measured and was considered to represent 100% lysis.

various fungi = test: In vitro susceptibility experiments, candicidin compared with amphotericin B; type: cell-based; conditions: experiments in various laboratories including those of the present inventors
humans = conditions: given orally to humans; cited from earlier work
[3] = cited from earlier work

Molecule | persons given amphotericin B who develop decreased renal function and abnormal urine sediment [1] | RBC hemolysis [2] | antifungal activity compared with amphotericin B (various fungi) | toxicity on oral administration (humans) | water solubility [3]
C[C@@H]1[C@H](O)[C@@H](C)/C=C/C=C/C=C/C=C/C=C/C=C/C=C/[C@H](O[C@@H]2O[C@H](C)[C@@H](O)[C@H](N)[C@@H]2O)C[C@@H]2O[C@](O)(C[C@@H](O)C[C@@H](O)[C@H](O)CC[C@@H](O)C[C@@H](O)CC(=O)O[C@H]1C)C[C@H](O)[C@H]2C(=O)O [amphotericin B] | over 80% | – | – | – | –
candicidin | – | 75% | much higher antifungal activity than amphotericin B | without any toxicity | totally water insoluble
